Test results as given in patent US6737383B1, “Herbicidal oxadiazolidines” (priority 1999, dated 2004).

Experiments:
rice = assay: Test B flood test rice; assay type: in vivo, Oryza sativa
In short: (§1)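 Plants were grown to the 2-leaf stage before treatment with test chemical, then held in a greenhouse for twelve to sixteen days. Injury was visually rated against untreated controls on a 0–10 scale, where 0 is no effect and 10 is complete control.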

velvetleaf = assay: Test B pre/postemergence velvetleaf; assay type: in vivo, Abutilon theophrasti; details: Preemergence
In short: (§2)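 Response is a visual 0-to-10 score relative to untreated plants, where 0 means no effect and 10 means complete control, taken twelve to sixteen days after application. Treatments went onto soil at planting and onto foliage of 1- to 4-leaf plants, using a surfactant-containing non-phytotoxic solvent.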

soybean = assay: Test B pre/postemergence soybean; assay type: in vivo, Glycine max; details: Preemergence
In short: as §2

rape = assay: Test B pre/postemergence rape; assay type: in vivo, Brassica napus; details: Preemergence
In short: as §2

bedstraw = assay: Test B pre/postemergence bedstraw; assay type: in vivo, Galium aparine; details: Preemergence
In short: as §2

cocklebur = assay: Test B pre/postemergence cocklebur; assay type: in vivo, Xanthium strumarium; details: Preemergence
In short: as §2

morningglory = assay: Test B pre/postemergence morningglory; assay type: in vivo, Ipomoea hederacea; details: Preemergence
In short: as §2

sugar beet = assay: Test B pre/postemergence sugar beet; assay type: in vivo, Beta vulgaris; details: Preemergence
In short: as §2

smallflower flatsedge = assay: Test B flood test smallflower flatsedge; assay type: in vivo, Cyperus difformis
In short: as §1

bamyardgrass = assay: Test B flood test barnyardgrass; assay type: in vivo, Echinochloa crus-galli
In short: as §1

wild oat = assay: Test B pre/postemergence wild oat; assay type: in vivo, Avena fatua; details: Preemergence
In short: as §2

corn = assay: Test B pre/postemergence corn; assay type: in vivo, Zea mays; details: Preemergence
In short: as §2

duck salad = assay: Test B flood test duck salad; assay type: in vivo, Heteranthera limosa
In short: as §1

wheat = assay: Test B pre/postemergence wheat; assay type: in vivo, Triticum aestivum; details: Preemergence
In short: as §2

crabgrass = assay: Test B pre/postemergence crabgrass; assay type: in vivo, Digitaria sanguinalis; details: Preemergence
In short: as §2

giant foxtail = assay: Test B pre/postemergence giant foxtail; assay type: in vivo, Setaria faberii; details: Preemergence
In short: as §2

blackgrass = assay: Test B pre/postemergence blackgrass; assay type: in vivo, Alopecurus myosuroides; details: Preemergence
In short: as §2

surinam grass = assay: Test B pre/postemergence surinam grass; assay type: in vivo, Brachiaria decumbens; details: Preemergence
In short: as §2

purple nutsedge = assay: Test B pre/postemergence purple nutsedge; assay type: in vivo, Cyperus rotundus; details: Preemergence
In short: as §2

pigweed = assay: Test B pre/postemergence pigweed; assay type: in vivo, Amaranthus retroflexus; details: Preemergence
In short: as §2

[1] = Pre-emergence, Rate 62 g/ha, scale 0 to 10, 0 is no effect, 10 is complete control
[2] = Rate 125 g/ha, Pre-emergence section (flood test species), scale 0 to 10, 0 no effect, 10 complete control
[3] = Rate 250 g/ha, Pre-emergence (flood test species), scale 0 to 10, 0 is no effect, 10 is complete control
[4] = Rate 500 g/ha, Pre-emergence section of Table B, 0 to 10 scale (0 no effect, 10 complete control)
[5] = Rate 62 g/ha, scale of 0 to 10 where 0 is no effect and 10 is complete control
[6] = Rate 125 g/ha, scale of 0 to 10 where 0 is no effect and 10 is complete control
[7] = Rate 250 g/ha, scale 0 (no effect) to 10 (complete control)
[8] = Rate 500 g/ha, scale 0 to 10 (0 no effect, 10 complete control)

Structure (SMILES): CC(C)N(C(=O)n1oc(=O)n(C(C)C2CC2)c1=O)c1ccc(F)cc1F (centres unmarked) [Compound 720]
- Rice plant response rating (rice; [1]): 0
- Rice plant response rating (rice; [2]): 0
- Rice plant response rating (rice; [3]): 0
- Rice plant response rating (rice; [4]): 0
- Velvetleaf plant response rating (velvetleaf; [5]): 1
- Plant response rating, Velvetleaf (velvetleaf; [6]): 2
- Velvetleaf plant response rating (velvetleaf; [7]): 3
- Velvetleaf plant response rating (velvetleaf; [8]): 3
- Soybean plant response rating (soybean; [5]): 0
- Plant response rating, Soybean (soybean; [6]): 0
- Soybean plant response rating (soybean; [7]): 0
- Soybean plant response rating (soybean; [8]): 0
- Rape plant response rating (rape; [5]): 6
- Plant response rating, Rape (rape; [6]): 7
- Rape plant response rating (rape; [7]): 9
- Rape plant response rating (rape; [8]): 9
- Plant response rating, Bedstraw (bedstraw; [6]): 10
- Bedstraw plant response rating (bedstraw; [7]): 10
- Bedstraw plant response rating (bedstraw; [8]): 10
- Cocklebur plant response rating (cocklebur; [5]): 0
- Plant response rating, Cocklebur (cocklebur; [6]): 0
- Cocklebur plant response rating (cocklebur; [7]): 0
- Morningglory plant response rating (morningglory; [5]): 0
- Plant response rating, Morningglory (morningglory; [6]): 0
- Morningglory plant response rating (morningglory; [8]): 2
- Sugarbeets plant response rating (sugar beet; [5]): 4
- Plant response rating, Sugarbeets (sugar beet; [6]): 6
- Sugarbeets plant response rating (sugar beet; [7]): 8
- Sugarbeets plant response rating (sugar beet; [8]): 8
- S. Flatsedge plant response rating (smallflower flatsedge; [1]): 0
- S. Flatsedge plant response rating (smallflower flatsedge; [2]): 0
- S. Flatsedge plant response rating (smallflower flatsedge; [3]): 0
- S. Flatsedge plant response rating (smallflower flatsedge; [4]): 0
- Barnyardgrass plant response rating (bamyardgrass; [1]): 0
- Barnyardgrass plant response rating (bamyardgrass; [2]): 0
- Barnyardgrass plant response rating (bamyardgrass; [3]): 0
- Barnyardgrass plant response rating (bamyardgrass; [4]): 0
- Wild oats plant response rating (wild oat; [5]): 7
- Plant response rating, Wild oats (wild oat; [6]): 8
- Wild oats plant response rating (wild oat; [7]): 9
- Wild oats plant response rating (wild oat; [8]): 9
- Corn plant response rating (corn; [5]): 0
- Plant response rating, Corn (corn; [6]): 2
- Corn plant response rating (corn; [7]): 4
- Ducksalad plant response rating (duck salad; [1]): 0
- Ducksalad plant response rating (duck salad; [2]): 0
- Ducksalad plant response rating (duck salad; [3]): 0
- Ducksalad plant response rating (duck salad; [4]): 0
- Wheat plant response rating (wheat; [5]): 0
- Plant response rating, Wheat (wheat; [6]): 0
- Wheat plant response rating (wheat; [7]): 5
- Wheat plant response rating (wheat; [8]): 5
- Crabgrass plant response rating (crabgrass; [5]): 9
- Plant response rating, Crabgrass (crabgrass; [6]): 9
- Crabgrass plant response rating (crabgrass; [7]): 10
- Crabgrass plant response rating (crabgrass; [8]): 10
- Giant foxtail plant response rating (giant foxtail; [5]): 9
- Plant response rating, Giant foxtail (giant foxtail; [6]): 10
- Giant foxtail plant response rating (giant foxtail; [7]): 10
- Giant foxtail plant response rating (giant foxtail; [8]): 10
- Blackgrass plant response rating (blackgrass; [5]): 9
- Plant response rating, Blackgrass (blackgrass; [6]): 9
- Blackgrass plant response rating (blackgrass; [7]): 10
- Blackgrass plant response rating (blackgrass; [8]): 10
- B. signalgrass plant response rating (surinam grass; [5]): 8
- Plant response rating, B. signalgrass (surinam grass; [6]): 9
- B. signalgrass plant response rating (surinam grass; [7]): 10
- B. signalgrass plant response rating (surinam grass; [8]): 10
- Plant response rating, Nutsedge (purple nutsedge; [6]): 0
- Nutsedge plant response rating (purple nutsedge; [8]): 0
- Redroot pigweed plant response rating (pigweed; [5]): 8
- Plant response rating, Redroot pigweed (pigweed; [6]): 9
- Redroot pigweed plant response rating (pigweed; [7]): 10
- Redroot pigweed plant response rating (pigweed; [8]): 10
